SMILES strings stand for the structures.

The target of this experiment is T1, N-type Ca2+ channels in IMR-32 cells (Homo sapiens, UniProt Q00975).
T1 construct: host or cells: IMR-32 cells, differentiated with dibutyryl cAMP and bromodeoxyuridine
Kind of experiment: Inhibition of N-type calcium flux in IMR-32 cells (Indo-1 fluorescence, nitrendipine present). The note with it: for inhibition at 1 µM / inhibition at 10 µM: IMR-32; for IC50: IMR-32 cells, 5 μM nitrendipine, K+ depolarization. Format: cell-based. In a few lines: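 Differentiated IMR-32 cells (7–13 days) were loaded with 5 μM Indo-1 AM, preincubated with compound for 10 min at 30° C, and depolarized with KCl/CaCl2 stimulation solution, with 5 μM nitrendipine blocking L-channels. Peak-minus-basal 400/490 nm emission ratio was plotted against drug concentration, and IC50 came from four-parameter logistic fits.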

T1 sequence (Q00975 whole entry): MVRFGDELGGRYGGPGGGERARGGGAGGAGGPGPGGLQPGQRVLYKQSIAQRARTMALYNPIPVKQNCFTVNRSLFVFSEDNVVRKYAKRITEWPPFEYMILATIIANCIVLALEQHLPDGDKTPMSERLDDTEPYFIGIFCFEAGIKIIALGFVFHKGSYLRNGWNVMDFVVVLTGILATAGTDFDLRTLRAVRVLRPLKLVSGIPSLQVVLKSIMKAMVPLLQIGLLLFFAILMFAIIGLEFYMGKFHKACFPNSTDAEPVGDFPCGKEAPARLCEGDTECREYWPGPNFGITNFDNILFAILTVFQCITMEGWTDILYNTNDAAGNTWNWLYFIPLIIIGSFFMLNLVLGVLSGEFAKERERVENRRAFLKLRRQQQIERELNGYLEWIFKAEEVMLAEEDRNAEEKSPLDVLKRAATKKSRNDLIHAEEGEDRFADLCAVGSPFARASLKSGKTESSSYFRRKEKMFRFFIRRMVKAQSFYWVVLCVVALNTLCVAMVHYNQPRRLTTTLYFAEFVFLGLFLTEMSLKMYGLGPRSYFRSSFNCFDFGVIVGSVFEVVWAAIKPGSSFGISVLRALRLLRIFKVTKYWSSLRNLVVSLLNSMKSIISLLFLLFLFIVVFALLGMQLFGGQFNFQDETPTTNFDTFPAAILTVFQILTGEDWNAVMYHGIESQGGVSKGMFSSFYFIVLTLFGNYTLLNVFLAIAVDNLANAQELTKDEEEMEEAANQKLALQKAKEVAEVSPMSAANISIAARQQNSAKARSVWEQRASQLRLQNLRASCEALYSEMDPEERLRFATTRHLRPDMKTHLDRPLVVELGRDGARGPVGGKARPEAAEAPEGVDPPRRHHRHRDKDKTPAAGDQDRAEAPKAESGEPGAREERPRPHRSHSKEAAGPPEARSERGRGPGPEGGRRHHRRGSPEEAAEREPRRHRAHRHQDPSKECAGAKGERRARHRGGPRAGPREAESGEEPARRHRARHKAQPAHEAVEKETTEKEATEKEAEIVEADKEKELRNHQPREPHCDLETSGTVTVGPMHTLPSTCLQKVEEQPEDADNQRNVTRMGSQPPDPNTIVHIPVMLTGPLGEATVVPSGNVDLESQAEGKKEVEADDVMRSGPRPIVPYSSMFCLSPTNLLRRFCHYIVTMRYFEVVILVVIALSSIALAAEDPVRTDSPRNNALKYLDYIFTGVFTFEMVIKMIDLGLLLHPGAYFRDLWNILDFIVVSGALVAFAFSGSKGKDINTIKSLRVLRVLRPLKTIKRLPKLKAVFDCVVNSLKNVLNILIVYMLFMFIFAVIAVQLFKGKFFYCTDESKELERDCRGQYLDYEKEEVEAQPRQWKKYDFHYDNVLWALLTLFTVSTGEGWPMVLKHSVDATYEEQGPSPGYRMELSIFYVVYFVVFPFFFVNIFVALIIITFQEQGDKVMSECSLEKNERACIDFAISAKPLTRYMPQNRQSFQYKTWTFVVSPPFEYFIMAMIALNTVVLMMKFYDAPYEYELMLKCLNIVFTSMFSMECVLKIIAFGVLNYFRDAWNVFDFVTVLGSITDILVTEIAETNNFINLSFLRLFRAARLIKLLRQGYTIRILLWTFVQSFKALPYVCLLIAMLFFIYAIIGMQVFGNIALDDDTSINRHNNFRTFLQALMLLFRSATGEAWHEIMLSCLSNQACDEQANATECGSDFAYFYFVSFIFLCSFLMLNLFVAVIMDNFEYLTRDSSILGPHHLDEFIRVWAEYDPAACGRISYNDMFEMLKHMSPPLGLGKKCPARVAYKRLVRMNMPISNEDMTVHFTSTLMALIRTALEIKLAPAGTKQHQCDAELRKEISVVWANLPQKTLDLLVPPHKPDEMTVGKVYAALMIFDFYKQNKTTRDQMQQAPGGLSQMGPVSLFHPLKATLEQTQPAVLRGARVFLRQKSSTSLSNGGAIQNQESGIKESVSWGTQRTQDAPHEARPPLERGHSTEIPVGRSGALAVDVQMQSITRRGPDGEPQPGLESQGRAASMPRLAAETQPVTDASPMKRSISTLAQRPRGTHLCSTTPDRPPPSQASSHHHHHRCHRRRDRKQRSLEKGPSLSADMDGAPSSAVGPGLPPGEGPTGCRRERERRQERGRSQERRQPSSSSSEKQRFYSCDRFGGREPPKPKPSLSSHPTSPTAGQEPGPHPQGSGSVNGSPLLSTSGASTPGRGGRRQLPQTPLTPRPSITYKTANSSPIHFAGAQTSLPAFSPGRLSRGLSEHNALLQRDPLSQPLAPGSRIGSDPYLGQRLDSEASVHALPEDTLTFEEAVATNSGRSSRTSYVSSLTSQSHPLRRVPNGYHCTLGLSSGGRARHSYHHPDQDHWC
T1 sequence (P54289 25-956 partner limits assumed): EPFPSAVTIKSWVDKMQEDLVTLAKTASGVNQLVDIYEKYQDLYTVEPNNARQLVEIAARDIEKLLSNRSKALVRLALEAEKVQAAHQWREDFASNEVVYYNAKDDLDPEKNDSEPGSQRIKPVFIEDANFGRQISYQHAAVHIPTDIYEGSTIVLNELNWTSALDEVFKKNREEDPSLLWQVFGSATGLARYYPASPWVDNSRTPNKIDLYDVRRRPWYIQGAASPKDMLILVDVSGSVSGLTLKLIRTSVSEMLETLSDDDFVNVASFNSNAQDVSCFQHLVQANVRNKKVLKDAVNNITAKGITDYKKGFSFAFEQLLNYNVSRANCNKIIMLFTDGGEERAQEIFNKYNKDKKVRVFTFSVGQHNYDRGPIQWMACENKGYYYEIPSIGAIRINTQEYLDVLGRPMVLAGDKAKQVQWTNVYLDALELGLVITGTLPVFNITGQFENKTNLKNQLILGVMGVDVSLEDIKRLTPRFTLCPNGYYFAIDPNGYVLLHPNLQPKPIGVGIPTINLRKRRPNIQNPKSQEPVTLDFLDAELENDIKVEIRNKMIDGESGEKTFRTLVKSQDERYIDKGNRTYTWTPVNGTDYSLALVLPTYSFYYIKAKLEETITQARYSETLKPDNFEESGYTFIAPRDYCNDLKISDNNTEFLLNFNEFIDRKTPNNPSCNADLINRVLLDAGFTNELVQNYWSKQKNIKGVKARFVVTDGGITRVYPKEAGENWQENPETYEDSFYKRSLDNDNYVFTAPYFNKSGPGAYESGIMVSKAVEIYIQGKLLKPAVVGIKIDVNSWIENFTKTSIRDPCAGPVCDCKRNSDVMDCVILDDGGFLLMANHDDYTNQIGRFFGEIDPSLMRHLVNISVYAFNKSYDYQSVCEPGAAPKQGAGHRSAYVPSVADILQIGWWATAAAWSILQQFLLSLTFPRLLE
T1 sequence (P54289 957-1103 partner limits assumed): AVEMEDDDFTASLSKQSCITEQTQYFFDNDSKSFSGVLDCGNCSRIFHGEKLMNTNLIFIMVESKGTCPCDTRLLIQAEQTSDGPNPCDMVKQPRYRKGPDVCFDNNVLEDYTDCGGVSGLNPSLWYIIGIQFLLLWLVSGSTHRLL
T1 sequence (P54284 whole entry partner): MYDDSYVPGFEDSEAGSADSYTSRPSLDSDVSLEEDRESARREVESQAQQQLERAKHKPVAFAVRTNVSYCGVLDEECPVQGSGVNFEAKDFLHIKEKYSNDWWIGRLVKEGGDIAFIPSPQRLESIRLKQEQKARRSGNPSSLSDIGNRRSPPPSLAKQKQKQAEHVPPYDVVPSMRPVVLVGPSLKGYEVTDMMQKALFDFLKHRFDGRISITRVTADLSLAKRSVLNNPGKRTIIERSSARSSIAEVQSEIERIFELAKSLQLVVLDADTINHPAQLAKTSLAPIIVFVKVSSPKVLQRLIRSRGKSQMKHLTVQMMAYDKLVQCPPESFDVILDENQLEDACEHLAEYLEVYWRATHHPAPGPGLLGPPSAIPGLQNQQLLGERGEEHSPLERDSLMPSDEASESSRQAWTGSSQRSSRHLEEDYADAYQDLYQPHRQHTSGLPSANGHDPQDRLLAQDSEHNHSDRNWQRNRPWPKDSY

With `CC(C)C[C@H](NC(=O)N1CCCCCC1)C(=O)N[C@@H](Cc1ccc(OCc2ccccc2)cc1)C(=O)N1CCc2ccccc2C1` [Example 201, [S-(R*,R*)]-Azepane-1-carboxylic acid {1-[1-(4-benzyloxy-benzyl)-2-(3,4-dihydro-1H-isoquinolin-2-yl)-2-oxo-ethylcarbamoyl]-3-methyl-butyl}-amide], the inhibition at 1 µM worked out at 29%, the inhibition at 10 µM turned out to be 81% and the IC50 is 2400 nM.

As to `CC(C)C[C@H](NC(=O)N1CCCCCC1)C(=O)N[C@@H](Cc1ccc(OCc2ccccc2)cc1)C(=O)N1CCN(CCO)CC1` [Example 202, [S-(R*,R*)]-Azepane-1-carboxylic acid (1-{1-(4-benzyloxy-benzyl)-2-[4-(2-hydroxy-ethyl)-piperazin-1-yl]-2-oxo-ethylcarbamoyl}-3-methyl-butyl)-amide], the inhibition at 1 µM was found to be 25%, the inhibition at 10 µM stood at 79% and the IC50 came out at 2800 nM.

Consider `CC(C)C[C@H](NC(=O)N1CCCCCC1)C(=O)N[C@@H](Cc1ccc(OCc2ccccc2)cc1)C(=O)NC1CC(C)(C)NC(C)(C)C1` [Example 203, [S-(R*,R*)]-Azepane-1-carboxylic acid {1-[2-(4-benzyloxy-phenyl)-1-(2,2,6,6-tetramethyl-piperidin-4-ylcarbamoyl)-ethylcarbamoyl]-3-methyl-butyl}-amide], for which the inhibition at 1 µM was found to be 15%, the inhibition at 10 µM turned out to be 70% and the IC50 turned out to be 4700 nM.

For the compound `CC(=O)N1CCN(C(=O)[C@H](Cc2ccc(OCc3ccccc3)cc2)NC(=O)[C@H](CC(C)C)NC(=O)N2CCCCCC2)CC1` [Example 204, [S-(R*,R*)]-Azepane-1-carboxylic acid {1-[2-(4-acetyl-piperazin-1-yl)-1-(4-benzyloxy-benzyl)-2-oxo-ethylcarbamoyl]-3-methyl-butyl}-amide], the inhibition at 1 µM came to 13%, the inhibition at 10 µM worked out at 66% and the IC50 came to 5500 nM.

Consider `CC(C)C[C@H](NC(=O)N1CCCCCC1)C(=O)N[C@@H](Cc1ccc(OCc2ccccc2)cc1)C(=O)NCC1CCCCC1` [Example 205, [S-(R*,R*)]-Azepane-1-carboxylic acid {1-[2-(4-benzyloxy-phenyl)-1-(cyclohexylmethyl-carbamoyl)-ethylcarbamoyl]-3-methyl-butyl}-amide], for which the inhibition at 1 µM worked out at 36%, the inhibition at 10 µM came out at 72% and the IC50 worked out at 2400 nM.

With `CC(C)C[C@H](NC(=O)N1CCCCCC1)C(=O)N[C@@H](Cc1ccc(OCc2ccccc2)cc1)C(=O)NCC1CC1` [Example 206, [S-(R*,R*)]-Azepane-1-carboxylic acid {1-[2-(4-benzyloxy-phenyl)-1-(cyclopropylmethyl-carbamoyl)-ethylcarbamoyl]-3-methyl-butyl}-amide], the inhibition at 1 µM stood at 37%, the inhibition at 10 µM turned out to be 87% and the IC50 was found to be 1700 nM.

As to `CC(C)C[C@H](NC(=O)N1CCCCCC1)C(=O)N[C@@H](Cc1ccc(OCc2ccccc2)cc1)C(=O)Nc1nccs1` [Example 207, [S-(R*,R*)]-Azepane-1-carboxylic acid {1-[2-(4-benzyloxy-phenyl)-1-(thiazol-2-ylcarbamoyl)-ethylcarbamoyl]-3-methyl-butyl}-amide], the inhibition at 1 µM worked out at 21%, the inhibition at 10 µM was 59% and the IC50 was 6200 nM.

As to `CC(C)C[C@H](NC(=O)N1CCCCCC1)C(=O)N[C@@H](Cc1ccc(OCc2ccccc2)cc1)C(=O)NC1CCCCCC1` [Example 208, [S-(R*,R*)]-Azepane-1-carboxylic acid {1-[2-(4-benzyloxy-phenyl)-1-cycloheptylcarbamoyl-ethylcarbamoyl]-3-methyl-butyl}-amide], the inhibition at 1 µM stood at 38%, the inhibition at 10 µM was determined as 81% and the 50% inhibitory concentration (IC50) worked out at 1800 nM.

As to `CC(C)C[C@H](NC(=O)N1CCCCCC1)C(=O)N[C@@H](Cc1ccc(OCc2ccccc2)cc1)C(=O)NC1CC1` [Example 209, [S-(R*,R*)]-Azepane-1-carboxylic acid {1-[2-(4-benzyloxy-phenyl)-1-cyclopropylcarbamoyl-ethylcarbamoyl]-3-methyl-butyl}-amide], the inhibition at 1 µM came to 27%, the inhibition at 10 µM amounted to 82% and the concentration for half-maximal inhibition (IC50) stood at 2500 nM.

Regarding `COc1ccc(NC(=O)[C@H](Cc2ccc(OCc3ccccc3)cc2)NC(=O)[C@H](CC(C)C)NC(=O)N2CCCCCC2)cc1` [Example 210, [S-(R*,R*)]-Azepane-1-carboxylic acid {1-[2-(4-benzyloxy-phenyl)-1-(4-methoxy-phenylcarbamoyl)-ethylcarbamoyl]-3-methyl-butyl}-amide], the inhibition at 1 µM was 39% and the IC50 was 1500 nM.

As to `CC(C)C[C@H](NC(=O)N1CCCCCC1)C(=O)N[C@@H](Cc1ccc(OCc2ccccc2)cc1)C(=O)Nc1ccc(CCO)cc1` [Example 211, [S-(R*,R*)]-Azepane-1-carboxylic acid (1-{2-(4-benzyloxy-phenyl)-1-[4-(2-hydroxy-ethyl)-phenylcarbamoyl]-ethylcarbamoyl}-3-methyl-butyl)-amide], the inhibition at 1 µM is 49%, the inhibition at 10 µM came to 81% and the IC50 was found to be 1100 nM.

For the compound `CC(=O)c1ccc(NC(=O)[C@H](Cc2ccc(OCc3ccccc3)cc2)NC(=O)[C@H](CC(C)C)NC(=O)N2CCCCCC2)cc1` [Example 212, [S-(R*,R*)]-Azepane-1-carboxylic acid {1-[1-(4-acetyl-phenylcarbamoyl)-2-(4-benzyloxy-phenyl)-ethylcarbamoyl]-3-methyl-butyl}-amide], the inhibition at 1 µM is 34%, the inhibition at 10 µM worked out at 66% and the IC50 was determined as 1900 nM.

On to `CC(C)C[C@H](NC(=O)N1CCCCCC1)C(=O)N[C@@H](Cc1ccc(OCc2ccccc2)cc1)C(=O)Nc1ccc(Oc2ccccc2)cc1` [Example 213, [S-(R*,R*)]-Azepane-1-carboxylic acid {1-[2-(4-benzyloxy-phenyl)-1-(4-phenoxy-phenylcarbamoyl)-ethylcarbamoyl]-3-methyl-butyl}-amide], for which the inhibition at 1 µM is 30%, the inhibition at 10 µM was 33% and the IC50 came to 2400 nM.

Consider `CC(C)C[C@H](NC(=O)N1CCCCCC1)C(=O)N[C@@H](Cc1ccc(OCc2ccccc2)cc1)C(=O)Nc1cccc(C(F)(F)F)c1` [Example 214, [S-(R*,R*)]-Azepane-1-carboxylic acid {1-[2-(4-benzyloxy-phenyl)-1-(3-trifluoromethyl-phenylcarbamoyl)-ethylcarbamoyl]-3-methyl-butyl}-amide], for which the inhibition at 1 µM came out at 42%, the inhibition at 10 µM turned out to be 51% and the IC50 came to 1400 nM.

Consider `CC(C)C[C@H](NC(=O)N1CCCCCC1)C(=O)N[C@@H](Cc1ccc(OCc2ccccc2)cc1)C(=O)NCc1ccc(CN)cc1` [Example 217, [S-(R*,R*)]-Azepane-1-carboxylic acid {1-[1-(4-aminomethyl-benzylcarbamoyl)-2-(4-benzyloxy-phenyl)-ethylcarbamoyl]-3-methyl-butyl}-amide], for which the inhibition at 1 µM was found to be 35%, the inhibition at 10 µM stood at 75% and the IC50 came out at 5000 nM.

As to `CC(C)CC(NC(=O)N1CCCCCC1)C(=O)NC(Cc1ccc(OCc2ccccc2)cc1)C(=O)N1CCCC1CNc1ccccc1` (stereo not drawn) [Example 218, Azepane-1-carboxylic acid {1-[1-(4-benzyloxy-benzyl)-2-oxo-2-(2-phenylaminomethyl-pyrrolidin-1-yl)-ethylcarbamoyl]-3-methyl-butyl}-amide], the inhibition at 1 µM is 62% and the inhibition at 10 µM is 93%.

As to `CC(C)CC(NC(=O)N1CCCCCC1)C(=O)NC(Cc1ccc(OCc2ccccc2)cc1)C(=O)NCC(O)CN` (stereo not drawn) [Example 219, Azepane-1-carboxylic acid {1-[1-(3-amino-2-hydroxy-propylcarbamoyl)-2-(4-benzyloxy-phenyl)-ethylcarbamoyl]-3-methyl-butyl}-amide], the inhibition at 1 µM worked out at 6% and the inhibition at 10 µM was 23%.

For `CC(C)CC(NC(=O)N1CCCCCC1)C(=O)NC(Cc1ccc(OCc2ccccc2)cc1)C(=O)NC(CO)C(O)c1ccccc1` (stereo not drawn) [Example 227, [S-(R*,R*)]-Azepane-1-carboxylic acid {1-[2-(4-benzyloxy-phenyl)-1-(2-hydroxy-1-hydroxymethyl-2-phenyl-ethylcarbamoyl)-ethylcarbamoyl]-3-methyl-butyl}-amide], the “Inhibition of Calcium Flux in IMR-32 Cells % Inhibition at 1 μM” value is given as 19%. Moreover, the “Inhibition of Calcium Flux in IMR-32 Cells % Inhibition at 10 μM” value (10 μM) came out at 86%.

Consider `CC(C)CC(NC(=O)N1CCCCCC1)C(=O)NC(Cc1ccc(OCc2ccccc2)cc1)C(=O)NC(C)CN(C)C` (stereo not drawn) [Example 230, Azepane-1-carboxylic acid {1-[2-(4-benzyloxy-phenyl)-1-(2-dimethylamino-1-methyl-ethylcarbamoyl)-ethylcarbamoyl]-3-methyl-butyl}-amide], for which the inhibition at 1 µM turned out to be 34% and the inhibition at 10 µM was 81%.

Regarding `CC(C)CC(NC(=O)N1CCCCCC1)C(=O)NC(Cc1ccc(OCc2ccccc2)cc1)C(=O)N1CCCC(O)C1` (stereo not drawn) [Example 234, Azepane-1-carboxylic acid {1-[1-(4-benzyloxy-benzyl)-2-(3-hydroxy-piperidin-1-yl)-2-oxo-ethylcarbamoyl]-3-methyl-butyl}-amide], the inhibition at 1 µM stood at 32% and the inhibition at 10 µM was 67%.

On to `CC(C)CC(NC(=O)N1CCCCCC1)C(=O)NC(Cc1ccc(OCc2ccccc2)cc1)C(=O)NC(C)CNCC(C)N` (stereo not drawn) [Example 239, Azepane-1-carboxylic acid {1-[1-[2-(2-amino-propylamino)-1-methyl-ethylcarbamoyl]-2-(4-benzyloxy-phenyl)-ethylcarbamoyl]-3-methyl-butyl}-amide], for which the inhibition at 1 µM turned out to be 22% and the inhibition at 10 µM is 23%.

Turning to `CC(C)C[C@H](NC(=O)N1CCCCCC1)C(=O)N[C@@H](Cc1ccc(OCc2ccccc2)cc1)C(=O)NCC(C)NC(C)C` (stereo partly drawn) [Example 242], the “Inhibition of Calcium Flux in IMR-32 Cells % Inhibition at 1 μM” value was determined as 23%.

(Values after patent publication US6423689B1, “Peptidyl calcium channel blockers” (Warner-Lambert Company, priority 1997, dated 2002).)
